Reference: US12146196B2, “C-RAF mutants that confer resistance to RAF inhibitors” (DANA-FARBER CANCER INSTITUTE, INC., priority 2012, dated 2024)
Blank lines part the entries; values can stand above or below the compound they belong to.

How the values were obtained:
[1] = tested on: A375 cells expressing WT-C-RAF; assay: Pharmacologic growth inhibition assay, WT-C-RAF cells; conditions: Homo sapiens, A-375, 96 h
[2] = tested on: A375 cells expressing C-RAF resistance allele P261T; assay: Pharmacologic growth inhibition assay, P261T cells; format: cell-based, human; conditions: for increase of GI50 values compared to the WT: A375 expressing C-RAF P261T vs WT-C-RAF
Description: (§1) GI50 values were calculated by determining the slope of the line connecting the data points that flanked the 50% point.

C-RAF resistance mutants [3] = assay: C-RAF kinase assay (A375); format: biochemical, human; conditions: A375 expressing S257P, P261T and G361A; exposure to 2 μM vemurafenib
Description: (§2) A375 cells infected with WT and mutant C-RAF alleles were cultured in the absence and presence of PLX4032 (Allele Biotech) for 16 h. Lysates were prepared with 150 mM NaCl, 50 mM Tris pH 7.5, 1 mM EDTA, PMSF, Sodium Fluoride, Sodium Orthovanadate and protease inhibitor cocktail in the presence of 1% NP-40. Immunoprecipitation with C-RAF antibody was performed overnight and bound beads were washed three times with lysis buffer, followed by kinase buffer (1×). […] The phosphorylated substrate MEK was detected by immunoblotting.

C-RAF resistance mutants [4] = biological target: T1, C-RAF resistance mutants (Homo sapiens, UniProt P04049, G361A); assay: C-RAF kinase assay (A375); format: biochemical; conditions: A375 expressing G361A; Vemurafenib 16 h
T1 construct: expressed in transfected cells
Description: as §2

C-RAF resistance mutants [5] = assay: C-RAF kinase assay (293T); format: biochemical, human; conditions: 293T cells treated with 2 μM vemurafenib prior to assay; all resistance alleles examined
Description: The 293T cells (70% confluent) were transfected with 6 μg pc-DNA with His or V5 tag towards the C-terminal containing C-RAF-WT and C-RAF variant alleles. Cells were treated with vemurafenib (Allele Biotech) for 1 h and 48 h post-transfection, lysates were extracted by general protocol. Immunoprecipitation using cobalt beads was performed […] for 1 hr at 4° C. […] The phosphorylated MEK product was detected by immunostaining using a p-MEK antibody (Cell Signaling Technology), and relative p-MEK signals were quantified using densitometry, normalized to the amount of input C-RAF, and compared to C-RAF-WT as a reference.

[6] = tested on: A375 cells expressing C-RAF resistance allele S257P; assay: Pharmacologic growth inhibition assay, S257P cells; format: cell-based, human; conditions: for increase of GI50 values compared to the WT: A375 expressing C-RAF S257P vs WT-C-RAF
Description: as §1

C-RAF homodimer = assay: C-RAF homodimerization, Ni2+ bead pull-down of His-tagged C-RAF, anti-Flag immunoblot; format: cell-based, human; conditions: 293T cells expressing C-RAF resistance mutants; 2 μM, 1 h
Description: (A) 293T cells co-expressing His/V5-tagged and Flag-tagged C-RAF resistance mutants for 48 h were immunoprecipitated with Nickel (see Methods) to pull down His-tagged C-RAF, and Flag tagged C-RAF was assessed by immunoblotting. Input lysate was also assessed using antibodies that detected Flag-C-RAF, V5-C-RAF, total C-RAF, p-MEK, p-ERK and total ERK. (B) 293T cells co-expressing His/V5-tagged and Flag-tagged C-RAF resistance mutants were treated with either vehicle (DMSO) or 2 μM of vemurafenib for 1 h, and His/V5-tagged C-RAFwas immunoprecipitated as in (A) above. Input lysates were immunoblotted using antibodies recognizing C-RAF (S338), p-MEK, p-ERK, and actin (loading control). (C) In vitro C-Raf kinase activity was measured in cell extracts derived from 293T cells transiently expressing Flag-tagged empty vector (“C”), wild type C-RAF (“WT”), and C-RAF harboring the resistance mutants S257P, P261T, G361A and E478K. Assays were performed in the presence or absence of 2 μM vemurafenib (see Methods). […] (D) In vitro C-Raf kinase activity was measured in cell extracts derived from A375 cells (B-RAF^V600E) (“C”) and A375 stably expressing wild type C-RAF (“WT”), and C-RAF harboring the resistance mutants S257P, P261T, and G361A in the presence and absence of 2 μM vemurafenib. […]

[7] = biological target: B-RAF/C-RAF heterodimerization (Homo sapiens, UniProt P04049+P15056, V600E); assay: Immunoprecipitation with C-RAF, bound B-RAF; format: cell-based; conditions: A375 melanoma cells, wild-type C-RAF; 2 μM
[8] = tested on: B-RAF/C-RAF heterodimerization; assay: Immunoprecipitation with C-RAF, bound B-RAF; format: cell-based, human
14-3-3/C-RAF interaction [9] = assay: Immunoprecipitation with C-RAF, bound 14-3-3ζ; format: cell-based, human
Description: (§3) (A) 293/T cells transiently expressing the indicated C-RAF resistance mutants in the absence (−) or presence (+) of 2 μM vemurafenib for 1 h were immunoprecipitated with C-RAF and levels of bound protein (B-RAF and 14-3-3 ζ) (upper panels) was assessed by immunoblotting. Input lysate (lower panels) show 14-3-3 ζ, B-RAF, C-RAF, pMek1/2, pErk1/2, Mek, S338 C-RAF and actin. Results are representative of more than two independent experiments. (B) A375 cells stably expressing the indicated C-RAF resistance mutants in the presence and absence of 2 μM vemurafenib for 16 h were immunoprecipitated with C-RAF and levels of bound protein (B-RAF and 14-3-3 ζ) (upper panels) was assessed by immunoblotting. Input lysate was blotted for the same as in FIG. 7A. Results are representative of more than two independent experiments.
(§4) For immunoprecipitation with C-RAF antibody (BD Biosciences) protein G-Sepharose slurry (Thermo Scientific) was washed with 1×PBS and incubated with C-RAF antibody (BD Biosciences) or normal mouse IgG (control) for 1 h at 4° C. After three washes with lysis buffer, the beads were incubated with whole cell lysates (0.5 mg of total protein) for 2 h and then washed three times with lysis buffer. The proteins were then eluted by boiling in 1×SDS-sample buffer.

14-3-3/C-RAF interaction [10] = biological target: T2, 14-3-3/C-RAF interaction (Homo sapiens, UniProt P04049); assay: Immunoprecipitation with C-RAF, bound 14-3-3ζ; format: cell-based; conditions: A375 cells (BRAF V600E)
T2 construct: expressed in transfected cells; 14-3-3 ζ endogenous
Description: as §3, §4

[11] = tested on: A375 cells expressing C-RAF resistance allele G361A; assay: Pharmacologic growth inhibition assay, G361A cells; format: cell-based, human; conditions: A375 expressing C-RAF G361A vs WT-C-RAF
Description: as §1

p-MEK, p-ERK = assay: Immunoblot of MEK/ERK signaling in 293T cells expressing C-RAF resistance mutants; format: cell-based, human; conditions: 2 μM
Description: Samples were extracted after washing twice with PBS and lysed with 150 mM NaCl, 50 mM Tris pH 7.5, 1 mM EDTA, PMSF, Sodium Fluoride, Sodium Orthovanadate and protease inhibitor cocktail in the presence of 1% NP-40. The protein content was estimated with protein assay reagent (Bio-Rad) according to the manufacturer's instructions. Equal amounts of whole cell lysates were loaded onto and separated by 8-16% SDS-PAGE ready-made gels. Proteins were transferred to polyvinylidene difluoride membranes in a Trans-Blot apparatus. Membranes were blocked with 5% skim milk in TBS containing 0.1% Tween 20 for 1 h at room temperature or overnight at 4° C. Membranes were then incubated with monoclonal or polyclonal antibody raised against the protein of interest for 1 h at room temperature or overnight at 4° C. followed by three washes with TBS containing 0.1% Tween 20. […] The bands were scanned and quantified by the Gel Doc system using the Quantity One software.

C-RAF (S259, S338, S621) = assay: Immunoblot of C-RAF phosphorylation sites S259, S338, S621; format: cell-based, human; conditions: for S259 phosphorylation: A375 expressing resistance mutants
Description: (§5) Samples were extracted after washing twice with PBS and lysed with 150 mM NaCl, 50 mM Tris pH 7.5, 1 mM EDTA, PMSF, Sodium Fluoride, Sodium Orthovanadate and protease inhibitor cocktail in the presence of 1% NP-40. The protein content was estimated with protein assay reagent (Bio-Rad) according to the manufacturer's instructions. Equal amounts of whole cell lysates were loaded onto and separated by 8-16% SDS-PAGE ready-made gels. Proteins were transferred to polyvinylidene difluoride membranes in a Trans-Blot apparatus. Membranes were blocked with 5% skim milk in TBS containing 0.1% Tween 20 for 1 h at room temperature or overnight at 4° C. Membranes were then incubated with monoclonal or polyclonal antibody raised against the protein of interest for 1 h at room temperature or overnight at 4° C. followed by three washes with TBS containing 0.1% Tween 20. The immunoreactivity of the primary antibodies C-RAF, S259C-RAF, S338C-RAF, S621C-RAF, PERK, ERK, pMEK, MEK, 14-3-3ζ Flag (Cell Signaling), B-RAF (Santa Cruz Biotechnology) and actin (Sigma) was visualized with a secondary anti-rabbit (BD Transduction Laboratories) or anti-mouse (Santa Cruz Biotechnology) antibodies conjugated with horseradish peroxidase and subsequent development with ECL Plus (Amersham Biosciences) and autoradiography on X-OMAR TAR films. The bands were scanned and quantified by the Gel Doc system using the Quantity One software.

pMek1/2, pErk1/2 = assay: Immunoblot of pMek/pErk in A375 cells expressing C-RAF alleles; format: cell-based, human
Description: as §5

[12] = A375 expressing S257P, P261T and G361A, PLX4720 2 μM 16 h

- GI50 [1]: 400 nM
- C-RAF kinase activity (C-RAF resistance mutants [3]): further augmented
- C-RAF kinase activity in presence of the drug (C-RAF resistance mutants [4]): even higher kinase activity
- C-RAF kinase activity (p-MEK) (C-RAF resistance mutants [5]): marked up-regulation
- B-RAF/C-RAF heterodimerization [7]: abrogated
- 14-3-3ζ binding to wild-type C-RAF (14-3-3/C-RAF interaction [10]): modestly decreased
- increase of GI50 values / resistance compared to the WT [11]: 50 fold
SMILES: CCCS(=O)(=O)Nc1ccc(F)c(C(=O)c2c[nH]c3ncc(-c4ccc(Cl)cc4)cc23)c1F [Vemurafenib]
- resistance in growth inhibition ([2]; A375 expressing C-RAF P261T): increased resistance
- resistance in growth inhibition ([6]; A375 expressing C-RAF S257P): increased resistance
- C-RAF dimerization (C-RAF homodimer): sustained but not further enhanced
- B-RAF/C-RAF heterodimerization ([8]; 293/T cells ectopically expressing wild-type C-RAF, 2 μM): induced
- B-RAF heterodimerization ([8]; A375 cells expressing the most robust C-RAF resistance mutants, in the presence of drug): sustained
- 14-3-3/C-RAF interactions (14-3-3/C-RAF interaction [9]; 293/T cells): enhanced
- 14-3-3ζ binding to C-RAF S257P, P261T and G361A mutants (14-3-3/C-RAF interaction [9]; A375 cells (BRAF V600E)): no effect
- MEK/ERK activation (p-MEK, p-ERK; 293/T cells, C-RAF G361A co-expressed with dimerization-deficient R401H double mutant, 1 hr): further induced
- downstream MEK/ERK signaling (p-MEK, p-ERK; 293T cells expressing C-RAF resistance mutants, 1 h): robustly induced
- C-RAF activation (S338 phosphorylation) (C-RAF (S259, S338, S621); 293T cells expressing C-RAF resistance mutants, 2 μM, 1 h): robustly induced

SMILES: Cn1cnc2c(F)c(Nc3ccc(Br)cc3Cl)c(C(=O)NOCCO)cc21 [AZD6244]
- S259 phosphorylation (C-RAF (S259, S338, S621); AZD6244 1 μM 16 h): attenuated
- pErk (pMek1/2, pErk1/2; A375 expressing resistance mutants, AZD6244 1 μM 16 h): diminishing levels

- GI50 [1]: 400 nM
- increase of GI50 values compared to the WT [2]: ~100 fold
- increase of GI50 values compared to the WT [6]: ~100 fold
- increase of GI50 values / resistance compared to the WT [11]: 30 fold
SMILES: CCCS(=O)(=O)Nc1ccc(F)c(C(=O)c2c[nH]c3ncc(Cl)cc23)c1F [PLX4720]
- phosphorylation of S338 (C-RAF (S259, S338, S621); [12]): induced
- phosphorylation of S621 (C-RAF (S259, S338, S621); [12]): modest increase
- S259 phosphorylation (C-RAF (S259, S338, S621); PLX4720): induced
- Mek phosphorylation (pMek) and Erk phosphorylation (pErk) (pMek1/2, pErk1/2; 2 μM, A375 cells and WT-C-RAF expressing cells): attenuated
- pMek and pErk (pMek1/2, pErk1/2; 2 μM, A375 expressing C-RAF resistance alleles): sustained pMek and pErk
- p-MEK (pMek1/2, pErk1/2; A375 expressing CRAF G361A, high PLX4720 concentrations): substantial “paradoxical” activation

- increase of GI50 values compared to the WT [2]: ~30,000 fold
- increase of GI50 values compared to the WT [6]: ~10,000 fold
- increase of GI50 values / resistance compared to the WT [11]: 20 fold
SMILES: COC(=O)N[C@@H](C)CNc1nccc(-c2cn(C(C)C)nc2-c2cc(Cl)cc(NS(C)(=O)=O)c2F)n1 [(S)-methyl 1-(4-(3-(5-chloro-2-fluoro-3-(methylsulfonamido)phenyl)-1-isopropyl-1H-pyrazol-4-yl)pyrimidin-2-ylamino)propan-2-ylcarbamate]
- biochemical resistance (pMek/pErk) (pMek1/2, pErk1/2; 1 μM, A375 expressing C-RAF resistance mutants): conferred resistance
